Eight compounds from ChEMBL document CHEMBL1681742, “Novel second generation analogs of eribulin. Part I: Compounds containing a lipophilic C32 side chain overcome P-glycoprotein susceptibility” (Bioorg Med Chem Lett, 2011) can be followed below.

Series [1] in a line: Antiproliferative activity against human MES-SA cells assessed as growth inhibition. The format is functional, cell-based.
Series [2] is described as follows: Antiproliferative activity against P-gp overexpressing human MES-SA/Dx5-Rx1 cells assessed as growth inhibition. The class given is functional.
In another series the test system is DLD-1. Put plainly: Antiproliferative activity against human DLD1 cells assessed as growth inhibition. The format is functional, cell-based.
Another series has as its system HCT-15. Put plainly: Antiproliferative activity against human HCT15 cells assessed as growth inhibition. The class given is functional, cell-based.
A short description of series [3]: Cytotoxicity against human IMR90 cells up to 1 uM. The class given is cell-based. Conditions: imr-90.
Series [4] relates to LOX. Kind of series: Antitumor activity against human LOX cells xenografted in athymic mouse assessed as inhibition of tumor growth at 0.1 mg/kg, iv qd administered 5 days a week for 2 weeks measured up to 2 weeks. The format is functional, organism-based. Further details: dose 0.1 mg/kg.
Series [5] in a line: Fold resistance, ratio of IC50 for antiproliferative activity for P-gp overexpressing human MES-SA/Dx5-Rx1cells to IC50 for antiproliferative activity for human MES-SA cells.
The test system of series [6] is LOX. Put plainly: Antitumor activity against human LOX cells xenografted in athymic mouse assessed as inhibition of tumor growth at 0.1 mg/kg, iv qd administered 5 days a week for 2 weeks measured after 2 weeks. The class given is functional, organism-based. Further details: dose 0.1 mg/kg. Background: In xenograft studies the graft and the host belong to different species.

Series [7] relates to Mus musculus. Kind of series: Toxicity in athymic mouse xenografted with human LOX cells assessed as body weight loss at 0.1 mg/kg, iv qd administered 5 days a week for 2 weeks. Further details: dose 0.1 mg/kg, route intravenous. The class given is organism-based. Conditions: in vivo.
For series [8], the system named is Mus musculus. Put plainly: Toxicity in athymic mouse xenografted with human LOX cells assessed as reduction in water uptake at 0.1 mg/kg, iv qd administered 5 days a week for 2 weeks. The class given is organism-based. Further details: dose 0.1 mg/kg, route intravenous. The settings on record: in vivo.

Structures are written as SMILES. Calls of active or inactive are those of the source. No cut-off for these calls is given here.

With `C=C1C[C@@H]2CC[C@@]34C[C@H]5O[C@H]6[C@@H](O3)[C@H]3O[C@H](CC[C@@H]3O[C@H]6[C@H]5O4)CC(=O)C[C@@H]3[C@@H](OC)[C@@H](C[C@H](O)CN)O[C@H]3C[C@H]3O[C@@H](CC[C@@H]1O2)C[C@@H](C)C3=C` [ERIBULIN], the IC50 – broadly, the concentration at which inhibition is half-maximal – was determined as 1.66 nM in series [1], 3060 nM in [2], 20 nM in the series with DLD-1 and 204 nM in the series with HCT-15. The Activity entry in series [3] is “Non-toxic”. Moreover, the outcome in the series with LOX [4] was Active. For the same compound, the “Ratio IC50” value in [5] is 1842.

Consider `C=C1C[C@@H]2CC[C@@]34C[C@H]5O[C@H]6[C@@H](O3)[C@H]3O[C@H](CC[C@@H]3O[C@H]6[C@H]5O4)CC(=O)C[C@@H]3[C@@H](OC)[C@@H](C[C@@H](COCC)OCC)O[C@H]3C[C@H]3O[C@@H](CC[C@@H]1O2)C[C@@H](C)C3=C`, for which the IC50 is 0.54 nM in series [1], 2.38 nM in [2], 0.8 nM in the series with DLD-1 and 0.55 nM with HCT-15. Besides, the Activity entry in series [3] is listed as “Non-toxic”. Also, the “Ratio IC50” value in series [5] was determined as 4.4.

Take `C=C1C[C@@H]2CC[C@@]34C[C@H]5O[C@H]6[C@@H](O3)[C@H]3O[C@H](CC[C@@H]3O[C@H]6[C@H]5O4)CC(=O)C[C@@H]3[C@@H](OC)[C@@H](C[C@H](O)COC)O[C@H]3C[C@H]3O[C@@H](CC[C@@H]1O2)C[C@@H](C)C3=C`: the IC50 in [1] turned out to be 0.17 nM; in [2] it was 2.82 nM; in the series on DLD-1 it was 0.27 nM; with HCT-15, 0.2 nM. In addition, the Activity entry (in series [3]; with Mus musculus [7]; with Mus musculus [8]) was “Non-toxic” in each case. Also, the result in the series on LOX [4] was Active. The result with LOX [6] was inactive. For the same compound, the “Ratio IC50” value in series [5] was 17.09.

In the case of `C=C1C[C@@H]2CC[C@@]34C[C@H]5O[C@H]6[C@@H](O3)[C@H]3O[C@H](CC[C@@H]3O[C@H]6[C@H]5O4)CC(=O)C[C@@H]3[C@@H](OC)[C@@H](C[C@H](O)CO)O[C@H]3C[C@H]3O[C@@H](CC[C@@H]1O2)C[C@@H](C)C3=C`, the IC50 came out at 0.03 nM in [1], 6.5 nM in [2], 0.54 nM in the series with DLD-1 and 0.22 nM with HCT-15. In [3], the Activity result is given as “Non-toxic”. In addition, in [5], the “Ratio IC50” value turned out to be 216.5.

Turning to `C=C1C[C@@H]2CC[C@@]34C[C@H]5O[C@H]6[C@@H](O3)[C@H]3O[C@H](CC[C@@H]3O[C@H]6[C@H]5O4)CC(=O)C[C@@H]3[C@@H](OC)[C@@H](C[C@@H](COC)OC)O[C@H]3C[C@H]3O[C@@H](CC[C@@H]1O2)C[C@@H](C)C3=C`, the IC50 amounted to 0.24 nM in [1], 1.86 nM in [2], 0.36 nM in the series on DLD-1 and 0.21 nM in the series with HCT-15. In addition, the Activity result (in series [3]; in the series on Mus musculus [7]; in the series on Mus musculus [8]) was “Non-toxic” throughout. Also, in the series on LOX [4], the outcome was Active. The outcome with LOX [6] was inactive. Further, the “Ratio IC50” value in series [5] is 7.76.

Regarding `C=C1C[C@@H]2CC[C@@]34C[C@H]5O[C@H]6[C@@H](O3)[C@H]3O[C@H](CC[C@@H]3O[C@H]6[C@H]5O4)CC(=O)C[C@@H]3[C@@H](OC)[C@@H](C[C@@H](COC(C)=O)OC(C)=O)O[C@H]3C[C@H]3O[C@@H](CC[C@@H]1O2)C[C@@H](C)C3=C`, the half-inhibitory concentration (IC50) was 0.32 nM in series [1], 2.77 nM in series [2], 0.44 nM in the series with DLD-1 and 0.32 nM in the series on HCT-15. Besides, the Activity entry in [3] was “Non-toxic”. Further, in series [5], the “Ratio IC50” value was 8.78.

Regarding `C=CCO[C@H](CO)C[C@H]1O[C@H]2C[C@H]3O[C@@H](CC[C@@H]4O[C@@H](CC[C@@]56C[C@H]7O[C@H]8[C@@H](O5)[C@H]5O[C@H](CC[C@@H]5O[C@H]8[C@H]7O6)CC(=O)C[C@@H]2[C@H]1OC)CC4=C)C[C@@H](C)C3=C`, the IC50 came to 0.24 nM in series [1], 4.13 nM in series [2], 0.2 nM with DLD-1 and 0.22 nM in the series on HCT-15. For the same compound, the Activity result in series [3] is reported as “Non-toxic”. Besides, the “Ratio IC50” value in [5] is listed as 17.19.

`C=C1C[C@@H]2CC[C@@]34C[C@H]5O[C@H]6[C@@H](O3)[C@H]3O[C@H](CC[C@@H]3O[C@H]6[C@H]5O4)CC(=O)C[C@@H]3[C@@H](OC)[C@@H](CCC#N)O[C@H]3C[C@H]3O[C@@H](CC[C@@H]1O2)C[C@@H](C)C3=C`: the half-inhibitory concentration (IC50) was determined as 0.75 nM in series [1], 2.91 nM in series [2], 1.43 nM in the series with DLD-1 and 0.68 nM in the series with HCT-15. Moreover, the Activity result in series [3] was “Non-toxic”. Also, the “Ratio IC50” value in series [5] stood at 3.88.
